For assay [1], the target named is MOR (Homo sapiens, UniProt P35372). The assay can be described thus: cell-based. Also noted: expressed in transfected cells; host or cells: CHO-K1/MOR/Ga15 cells. The note with it: for EC50: read-out: FLIPR Ca2+ EC50; for FLIPR Ca2+ AUC: area under the [Ca2+]i fluorescence response curve, up to 90 s. The protocol:
In an exemplary in vitro assay for identifying MOR agonists, cells that express a MOR are treated with a test compound in a cellular calcium fluorescent assay and calcium fluorescence intensity is then measured to determine whether the MOR is activated. A test compound is identified as a MOR agonist if the MOR is activated.
EC50 herein refers to the concentration of a compound that induces a response halfway between the baseline and the maximum after a specified exposure time. AUC refers to the area under the response curve, an indication of the compound's capability of activating a MOR.
One day before the assay, CORNING® black with clear flat bottom 96-well assay plates were coated with a 0.1 mg/mL Poly-L-Lysine solution. CHO-K1/MOR/Ga15 cells were suspended in the F12 medium and plated at a density of about 8×10^4 cells/well in […] medium. Cells were incubated in a humidified atmosphere of 10% CO2 at 37° C. overnight so as to reach an 80-90% confluent cell monolayer before the assay. On the day of the assay, 150 μL medium/well was removed from plate. […] Compounds and other reagents were dissolved in the assay buffer. […] The [Ca^2+]i fluorescence was measured up to 90 s after agonist injection.

In assay [2] the target is T1, human mu-opioid receptor (Homo sapiens, UniProt P35372).
T1 construct: expressed in transfected cells; host or cells: HEK-293 (HEK-MOR), kept under G418
The assay can be described thus: cell-based. The class given is cell-based. How it is done:
Cells (72,000 per well) were plated in 100 μl/well of DMEM in 96-well solid-bottom white plates (GIBCO) and 50 μl/well of drug in HBSS in the presence of forskolin and 3-isobutyl-1-methylxanthine at final concentrations of 1 μM and 500 μM, respectively. After 30 min of incubation at room temperature, the concentration of cyclic adenosine monophosphate was determined using a LANCE Ultra cAMP Assay kit (PerkinElmer).
As MOR belongs to the GPCR family, activation of MOR leads to a decrease in intracellular cAMP level.

Read-outs that look alike come from different tables or passages of the source.

MOR, sequence (P35372 whole entry): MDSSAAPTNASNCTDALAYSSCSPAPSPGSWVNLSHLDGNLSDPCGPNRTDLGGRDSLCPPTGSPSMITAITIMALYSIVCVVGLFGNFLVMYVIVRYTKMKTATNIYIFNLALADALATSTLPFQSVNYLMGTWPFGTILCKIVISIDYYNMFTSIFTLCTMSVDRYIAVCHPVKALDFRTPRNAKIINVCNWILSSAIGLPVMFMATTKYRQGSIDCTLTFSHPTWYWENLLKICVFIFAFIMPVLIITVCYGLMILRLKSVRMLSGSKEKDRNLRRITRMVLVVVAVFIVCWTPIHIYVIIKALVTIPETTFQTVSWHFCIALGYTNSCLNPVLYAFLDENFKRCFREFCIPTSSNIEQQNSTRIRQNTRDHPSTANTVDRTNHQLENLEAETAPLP
T1 sequence (P35372 whole entry): as above

On to `O=C(NCC1c2ccccc2CCN1S(=O)(=O)c1ccc(Br)cc1OC(F)(F)F)C1CC1` (stereo not drawn) [Compound 28, N-[(2-{[4-Bromo-2-(trifluoromethoxy)phenyl]sulfonyl}-1,2,3,4-tetrahydro-1-isoquinolinyl)methyl]cyclopropanecarboxamide], for which the EC50 in assay [1] (CHO-K1/MOR/Ga15 cells) was 5030 nM. Also, the “FLIPR Ca2+ AUC” value in assay [1] turned out to be 11880.
The corresponding values for `CC(C)(C)C(=O)NCC1c2ccccc2CCN1S(=O)(=O)c1ccc(Br)cc1OC(F)(F)F` (stereo not drawn) [Compound 29, N-[(2-{[4-Bromo-2-(trifluoromethoxy)phenyl]sulfonyl}-1,2,3,4-tetrahydro-1-isoquinolinyl)methyl]-2,2-dimethylpropanamide] are 4610 nM and 12780.
`O=C(NCC1NCCc2ccccc21)N1CCCCC1` (stereo not drawn) [Compound 35, N-(1,2,3,4-Tetrahydro-1-isoquinolinylmethyl)-1-piperidinecarboxamide]: the EC50 in assay [1] (CHO-K1/MOR/Ga15 cells) was 3310 nM.
Turning to `O=C(NCC1NCCc2ccccc21)N1CCOCC1` (stereo not drawn) [Compound 36, N-(1,2,3,4-Tetrahydro-1-isoquinolinylmethyl)-4-morpholinecarboxamide], the EC50 in assay [1] (CHO-K1/MOR/Ga15 cells) stood at 8080 nM.
As to `O=C(NCC1NCCc2ccccc21)N1CCCC1` (stereo not drawn) [Compound 37, N-(1,2,3,4-Tetrahydro-1-isoquinolinylmethyl)-1-pyrrolidinecarboxamide], the EC50 in assay [1] (CHO-K1/MOR/Ga15 cells) is 4020 nM. Further, the “FLIPR Ca2+ AUC” value in assay [1] stood at 3480.
On to `Cc1ccc(C(=O)NCC2NCCc3ccccc32)cc1` (stereo not drawn) [Compound 38, 4-Methyl-N-(1,2,3,4-tetrahydro-1-isoquinolinylmethyl)benzamide], for which the EC50 in assay [1] was 140 nM.
With `CC1CCC(C(=O)NCC2NCCc3ccccc32)CC1` (stereo not drawn) [Compound 39, 4-Methyl-N-(1,2,3,4-tetrahydro-1-isoquinolinylmethyl)cyclohexanecarboxamide], in assay [1] (CHO-K1/MOR/Ga15 cells), the 50% effective concentration (EC50) was determined as 1530 nM. In assay [1], the “FLIPR Ca2+ AUC” value is given as 12657.
Taken in the same sequence, the figures for `CCC1CCC(C(=O)NCC2NCCc3ccccc32)CC1` (stereo not drawn) [Compound 40, 4-Ethyl-N-(1,2,3,4-tetrahydro-1-isoquinolinylmethyl)cyclohexanecarboxamide] were 1120 nM and 10059.
The corresponding values for `CC1CCCCC1C(=O)NCC1NCCc2ccccc21` (stereo not drawn) [Compound 41, 2-Methyl-N-(1,2,3,4-tetrahydro-1-isoquinolinylmethyl)cyclohexanecarboxamide] are 10000 nM and 5627.
The corresponding values for `COC1CCC(C(=O)NCC2NCCc3ccccc32)CC1` (stereo not drawn) [Compound 42, 4-Methoxy-N-(1,2,3,4-tetrahydro-1-isoquinolinylmethyl)cyclohexanecarboxamide] are 6600 nM and 5538.
Turning to `O=C(NCC1NCCc2ccccc21)C1CCCC1` (stereo not drawn) [Compound 43, N-(1,2,3,4-Tetrahydro-1-isoquinolinylmethyl)cyclopentanecarboxamide], the EC50 in assay [1] (CHO-K1/MOR/Ga15 cells) came out at 8910 nM. In assay [1], the “FLIPR Ca2+ AUC” value is on record as 5768.
The corresponding values for `O=C(NCC1NCCc2ccccc21)C1CCC1` (stereo not drawn) [Compound 44, N-(1,2,3,4-Tetrahydro-1-isoquinolinylmethyl)cyclobutanecarboxamide] are 6800 nM and 3646.
The corresponding values for `O=C(NCC1NCCc2ccccc21)c1ccccc1` (stereo not drawn) [Compound 45, N-(1,2,3,4-Tetrahydro-1-isoquinolinylmethyl)benzamide] are 750 nM and 8628.
For the compound `COc1ccc(C(=O)NCC2NCCc3ccccc32)cc1` (stereo not drawn) [Compound 46, 4-Methoxy-N-(1,2,3,4-tetrahydro-1-isoquinolinylmethyl)benzamide], the EC50 in assay [1] was 370 nM.
As for `O=C(NCC1NCCc2ccccc21)c1ccc(OC(F)(F)F)cc1` (stereo not drawn) [Compound 47, N-(1,2,3,4-Tetrahydro-1-isoquinolinylmethyl)-4-(trifluoromethoxy)benzamide], the EC50 in assay [1] worked out at 370 nM.
Still for that read-out and setting: the figure for `O=C(NCC1NCCc2ccccc21)c1ccc(F)cc1` (stereo not drawn) [Compound 48, 4-Fluoro-N-(1,2,3,4-tetrahydro-1-isoquinolinylmethyl)benzamide] is 540 nM; for `O=C(NCC1NCCc2ccccc21)c1ccc(Cl)cc1` (stereo not drawn) [Compound 49, 4-Chloro-N-(1,2,3,4-tetrahydro-1-isoquinolinylmethyl)benzamide] it is 230 nM; for `CCc1ccc(C(=O)NCC2NCCc3ccccc32)cc1` (stereo not drawn) [Compound 50, 4-Ethyl-N-(1,2,3,4-tetrahydro-1-isoquinolinylmethyl)benzamide] it is 60 nM.
Turning to `COc1cccc(C(=O)NCC2NCCc3ccccc32)c1` (stereo not drawn) [Compound 51, 3-Methoxy-N-(1,2,3,4-tetrahydro-1-isoquinolinylmethyl)benzamide], the EC50 in assay [1] (CHO-K1/MOR/Ga15 cells) worked out at 860 nM. In addition, the “FLIPR Ca2+ AUC” value in assay [1] came to 13302.
Taken in the same sequence, the figures for `O=C(NCC1NCCc2ccccc21)c1cccc(F)c1` (stereo not drawn) [Compound 52, 3-Fluoro-N-(1,2,3,4-tetrahydro-1-isoquinolinylmethyl)benzamide] were 780 nM and 11425.
The corresponding values for `O=C(NCC1NCCc2ccccc21)c1cccc(Cl)c1` (stereo not drawn) [Compound 53, 3-Chloro-N-(1,2,3,4-tetrahydro-1-isoquinolinylmethyl)benzamide] are 380 nM and 13149.
As to `Cc1cccc(C(=O)NCC2NCCc3ccccc32)c1` (stereo not drawn) [Compound 54, 3-Methyl-N-(1,2,3,4-tetrahydro-1-isoquinolinylmethyl)benzamide], the EC50 in assay [1] was 370 nM.
For `COc1ccccc1C(=O)NCC1NCCc2ccccc21` (stereo not drawn) [Compound 55, 2-Methoxy-N-(1,2,3,4-tetrahydro-1-isoquinolinylmethyl)benzamide], the EC50 in assay [1] (CHO-K1/MOR/Ga15 cells) turned out to be 3310 nM. Besides, the “FLIPR Ca2+ AUC” value in assay [1] is on record as 4312.
For the compound `O=C(NCC1NCCc2ccccc21)c1ccccc1OC(F)(F)F` (stereo not drawn) [Compound 56, N-(1,2,3,4-Tetrahydro-1-isoquinolinylmethyl)-2-(trifluoromethoxy)benzamide], in assay [1] (CHO-K1/MOR/Ga15 cells), the EC50 came out at 3310 nM. Moreover, in assay [1], the “FLIPR Ca2+ AUC” value is listed as 7855.
Taken in the same sequence, the figures for `O=C(NCC1NCCc2ccccc21)c1ccccc1F` (stereo not drawn) [Compound 57, 2-Fluoro-N-(1,2,3,4-tetrahydro-1-isoquinolinylmethyl)benzamide] were 3280 nM and 12102.
Turning to `Cc1ccc(C(=O)NCC2NCCc3ccccc32)cc1C` (stereo not drawn) [Compound 58, 3,4-Dimethyl-N-(1,2,3,4-tetrahydro-1-isoquinolinylmethyl)benzamide], in assay [1], the EC50 is 120 nM.
On the same count and under the same terms, for `O=C(NCC1NCCc2ccccc21)c1ccc(Cl)c(Cl)c1` (stereo not drawn) [Compound 59, 3,4-Dichloro-N-(1,2,3,4-tetrahydro-1-isoquinolinylmethyl)benzamide] the value was 250 nM.
As for `Cc1ccc(C(=O)NCC2NCCc3ccccc32)c(C)c1` (stereo not drawn) [Compound 60, 2,4-Dimethyl-N-(1,2,3,4-tetrahydro-1-isoquinolinylmethyl)benzamide], the EC50 in assay [1] (CHO-K1/MOR/Ga15 cells) was 660 nM. Besides, the “FLIPR Ca2+ AUC” value in assay [1] worked out at 13375.
Regarding `Cc1ccc(C(=O)NCC2c3ccccc3CCN2C)cc1` (stereo not drawn) [Compound 61, 4-Methyl-N-[(2-methyl-1,2,3,4-tetrahydro-1-isoquinolinyl)methyl]benzamide], the EC50 in assay [1] (CHO-K1/MOR/Ga15 cells) worked out at 40 nM. Also, the “FLIPR Ca2+ AUC” value in assay [1] came out at 14757.
Regarding `CCCCN1CCc2ccccc2C1CNC(=O)c1ccc(C)cc1` (stereo not drawn) [Compound 62, N-[(2-Butyl-1,2,3,4-tetrahydro-1-isoquinolinyl)methyl]-4-methylbenzamide], in assay [1] (CHO-K1/MOR/Ga15 cells), the EC50 was 160 nM. The “FLIPR Ca2+ AUC” value in assay [1] is reported as 14669.
The corresponding values for `Cc1ccc(C(=O)NCC2c3ccccc3CCN2CC(C)C)cc1` (stereo not drawn) [Compound 63, 4-Methyl-N-{[2-(2-methylpropyl)-1,2,3,4-tetrahydro-1-isoquinolinyl]methyl}benzamide] are 110 nM and 18418.
With `Cc1ccc(C(=O)NCC2c3ccccc3CCN2CCCl)cc1` (stereo not drawn) [Compound 64, N-{[2-(2-Chloroethyl)-1,2,3,4-tetrahydro-1-isoquinolinyl]methyl}-4-methylbenzamide], the EC50 in assay [1] (CHO-K1/MOR/Ga15 cells) turned out to be 30 nM.
Consider `CCc1ccc(C(=O)NCC2c3ccccc3CCN2C)cc1` (stereo not drawn) [Compound 65, 4-Ethyl-N-[(2-methyl-1,2,3,4-tetrahydro-1-isoquinolinyl)methyl]benzamide], for which, in assay [1] (CHO-K1/MOR/Ga15 cells), the EC50 stood at 10 nM. The “FLIPR Ca2+ AUC” value in assay [1] is 18367.
Taken in the same sequence, the figures for `Cc1ccc(C(=O)NCC2c3ccccc3CCN2C)cc1C` (stereo not drawn) [Compound 66, 3,4-Dimethyl-N-[(2-methyl-1,2,3,4-tetrahydro-1-isoquinolinyl)methyl]benzamide] were 10 nM and 17393.
For the compound “[Met5]enkephalin [Met-5, reference compound]”, in assay [2], the cAMP production entry was “significantly decreased cAMP production”.
